Data reported in PubChem BioAssay (NCI).
“And” between values parts separate entries of the source, which are not always exact repeats. Equal entries are not always repeated.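 96-well plates; 48 h exposure; 5 concentrations. Endpoints by linear interpolation between flanking doses. Not reached: highest tested concentration assigned. The concentration for 50% growth inhibition is given as GI50. TGI: total growth inhibition.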

Key:
Assay in all cases: inhibition of tumour cell growth, NCI panel, 48 h
UACC-62 melanoma = tested on: UACC-62 melanoma
SK-MEL-2 melanoma = tested on: SK-MEL-2 melanoma
SF-268 CNS = tested on: SF-268 CNS
T-47D breast = tested on: T-47D breast
SW-620 colon = tested on: SW-620 colon
OVCAR-5 ovarian = tested on: OVCAR-5 ovarian
NCI/ADR-RES ovarian = tested on: NCI/ADR-RES ovarian
IGROV1 ovarian = tested on: IGROV1 ovarian
HOP-92 NSCLC = tested on: HOP-92 NSCLC
EKVX NSCLC = tested on: EKVX NSCLC
HOP-62 NSCLC = tested on: HOP-62 NSCLC
HS 578T breast = tested on: HS 578T breast
MDA-MB-435 = tested on: MDA-MB-435
OVCAR-4 ovarian = tested on: OVCAR-4 ovarian
NCI-H23 lung = tested on: NCI-H23 lung
A498 renal = tested on: A498 renal
OVCAR-3 ovarian = tested on: OVCAR-3 ovarian
K-562 leukemia = tested on: K-562 leukemia
DU-145 prostate = tested on: DU-145 prostate
786-0 renal = tested on: 786-0 renal
MDA-MB-231 breast = tested on: MDA-MB-231 breast
HCT-116 colon = tested on: HCT-116 colon
HCC-2998 colon = tested on: HCC-2998 colon
M14 melanoma = tested on: M14 melanoma
SK-MEL-5 melanoma = tested on: SK-MEL-5 melanoma
SNB-75 CNS = tested on: SNB-75 CNS
MCF7 breast = tested on: MCF7 breast
HT29 colon = tested on: HT29 colon
SK-MEL-28 melanoma = tested on: SK-MEL-28 melanoma
RPMI-8226 leukemia = tested on: RPMI-8226 leukemia
SF-539 CNS = tested on: SF-539 CNS
MDA-N = tested on: MDA-N
MOLT-4 leukemia = tested on: MOLT-4 leukemia
A549 NSCLC = tested on: A549 NSCLC
KM12 colon = tested on: KM12 colon
HCT-15 colon = tested on: HCT-15 colon
NCI-H460 lung = tested on: NCI-H460 lung
NCI-H226 lung = tested on: NCI-H226 lung
U251 CNS = tested on: U251 CNS
ACHN renal = tested on: ACHN renal
COLO 205 colon = tested on: COLO 205 colon
RXF 393 renal = tested on: RXF 393 renal
SF-295 CNS = tested on: SF-295 CNS
SNB-19 CNS = tested on: SNB-19 CNS
SN12C renal = tested on: SN12C renal
HL-60(TB) leukemia = tested on: HL-60(TB) leukemia
OVCAR-8 ovarian = tested on: OVCAR-8 ovarian
UO-31 renal = tested on: UO-31 renal
UACC-257 melanoma = tested on: UACC-257 melanoma
TK-10 renal = tested on: TK-10 renal
BT-549 breast = tested on: BT-549 breast
SK-OV-3 ovarian = tested on: SK-OV-3 ovarian
MALME-3M melanoma = tested on: MALME-3M melanoma
LOX IMVI melanoma = tested on: LOX IMVI melanoma
CCRF-CEM leukemia = tested on: CCRF-CEM leukemia
CAKI-1 renal = tested on: CAKI-1 renal
PC-3 prostate = tested on: PC-3 prostate
NCI-H522 lung = tested on: NCI-H522 lung

Structure (SMILES): COc1ccccc1N1C(=O)CSC1c1c[nH]c2ccccc12 (stereo not given)
- TGI (UACC-62 melanoma): > 100000 nM
- TGI (SK-MEL-2 melanoma): > 100000 nM
- TGI (SF-268 CNS): > 100000 nM
- TGI (T-47D breast): > 100000 nM
- TGI (SW-620 colon): > 100000 nM
- TGI (OVCAR-5 ovarian): > 100000 nM
- TGI (NCI/ADR-RES ovarian): > 100000 nM
- TGI (IGROV1 ovarian): > 100000 nM
- TGI (HOP-92 NSCLC): > 100000 nM
- TGI (EKVX NSCLC): > 100000 nM
- TGI (HOP-62 NSCLC): > 100000 nM
- TGI (HS 578T breast): > 100000 nM
- TGI (MDA-MB-435): > 100000 nM
- TGI (OVCAR-4 ovarian): > 100000 nM
- TGI (NCI-H23 lung): > 100000 nM
- TGI (A498 renal): > 100000 nM
- TGI (OVCAR-3 ovarian): > 100000 nM
- TGI (K-562 leukemia): > 100000 nM
- TGI (DU-145 prostate): > 100000 nM
- TGI (786-0 renal): > 100000 nM
- TGI (MDA-MB-231 breast): > 100000 nM
- TGI (HCT-116 colon): > 100000 nM
- TGI (HCC-2998 colon): > 100000 nM
- TGI (M14 melanoma): > 100000 nM
- TGI (SK-MEL-5 melanoma): > 100000 nM
- TGI (SNB-75 CNS): > 100000 nM
- TGI (MCF7 breast): > 100000 nM
- TGI (HT29 colon): > 100000 nM
- TGI (SK-MEL-28 melanoma): > 100000 nM
- TGI (RPMI-8226 leukemia): > 100000 nM
- TGI (SF-539 CNS): > 100000 nM
- TGI (MDA-N): > 100000 nM
- TGI (MOLT-4 leukemia): > 100000 nM
- TGI (A549 NSCLC): > 100000 nM
- TGI (KM12 colon): > 100000 nM
- TGI (HCT-15 colon): > 100000 nM
- TGI (NCI-H460 lung): > 100000 nM
- TGI (NCI-H226 lung): > 100000 nM
- TGI (U251 CNS): > 100000 nM
- TGI (ACHN renal): > 100000 nM
- TGI (COLO 205 colon): > 100000 nM
- TGI (RXF 393 renal): > 100000 nM
- TGI (SF-295 CNS): > 100000 nM
- TGI (SNB-19 CNS): > 100000 nM
- TGI (SN12C renal): > 100000 nM
- TGI (HL-60(TB) leukemia): > 100000 nM
- TGI (OVCAR-8 ovarian): > 100000 nM
- TGI (UO-31 renal): > 100000 nM
- TGI (UACC-257 melanoma): > 100000 nM
- TGI (TK-10 renal): > 100000 nM
- TGI (BT-549 breast): > 100000 nM
- TGI (SK-OV-3 ovarian): > 100000 nM

Structure (SMILES): COc1cccc2c1C(=O)c1c(O)c3c(c(O)c1C2=O)C[C@@](O)(C(=O)CO)C[C@@H]3OC1CC2C(OCN3CN2COC2C(C)OC(O[C@H]4C[C@](O)(C(=O)CO)Cc5c(O)c6c(c(O)c54)C(=O)c4c(OC)cccc4C6=O)CC23)C(C)O1 (stereo not given in full)
- GI50 (MALME-3M melanoma): 15.9 nM
- TGI (MALME-3M melanoma): 197 nM and 80.9 nM
- GI50 (UACC-62 melanoma): 5.01 nM
- GI50 (SK-MEL-2 melanoma): 23 nM
- TGI (SK-MEL-2 melanoma): 112 nM and 67 nM
- GI50 (SF-268 CNS): 6.35 nM and 12.2 nM
- GI50 (T-47D breast): 69.7 nM
- GI50 (SW-620 colon): 10.4 nM
- GI50 (OVCAR-5 ovarian): 88.6 nM and 20.2 nM
- GI50 (NCI/ADR-RES ovarian): 325 nM and 58.6 nM
- TGI (NCI/ADR-RES ovarian): 25000 nM and 8210 nM
- GI50 (IGROV1 ovarian): 17.6 nM
- GI50 (HOP-92 NSCLC): 15.3 nM and 15.9 nM
- TGI (HOP-92 NSCLC): 381 nM and 263 nM and 506 nM
- GI50 (EKVX NSCLC): 85.5 nM and 19.9 nM
- TGI (EKVX NSCLC): 616 nM and 72 nM
- GI50 (HOP-62 NSCLC): 21.8 nM
- TGI (HOP-62 NSCLC): 419 nM and 2770 nM and 1230 nM
- GI50 (HS 578T breast): 32.1 nM
- GI50 (MDA-MB-435): 64.9 nM and 26.7 nM
- TGI (MDA-MB-435): 374 nM and 352 nM and 133 nM
- TGI (LOX IMVI melanoma): 204 nM and 28.7 nM
- GI50 (OVCAR-4 ovarian): 104 nM
- TGI (OVCAR-4 ovarian): 5220 nM
- GI50 (NCI-H23 lung): 11.6 nM
- TGI (NCI-H23 lung): 209 nM and 108 nM and 21.7 nM
- GI50 (A498 renal): 3.82 nM
- GI50 (OVCAR-3 ovarian): 46.7 nM and 15.4 nM
- GI50 (CCRF-CEM leukemia): 3.01 nM
- GI50 (DU-145 prostate): 11.9 nM
- GI50 (786-0 renal): 7.92 nM
- GI50 (MDA-MB-231 breast): 48.2 nM
- TGI (MDA-MB-231 breast): 705 nM and 893 nM
- GI50 (HCT-116 colon): 16.6 nM
- TGI (HCT-116 colon): 537 nM and 85.6 nM
- GI50 (HCC-2998 colon): 75 nM and 23.9 nM
- TGI (HCC-2998 colon): 277 nM and 500 nM and 104 nM
- GI50 (M14 melanoma): 50.5 nM
- TGI (M14 melanoma): 332 nM and 381 nM
- GI50 (SK-MEL-5 melanoma): 44.7 nM
- TGI (SK-MEL-5 melanoma): 236 nM and 263 nM
- GI50 (CAKI-1 renal): 17.5 nM
- GI50 (SNB-75 CNS): 7.56 nM
- TGI (SNB-75 CNS): 66.3 nM and 34.2 nM
- GI50 (PC-3 prostate): 50.1 nM
- TGI (PC-3 prostate): 935 nM and 890 nM
- GI50 (HT29 colon): 19.9 nM
- TGI (HT29 colon): 148 nM
- GI50 (SK-MEL-28 melanoma): 49.3 nM
- TGI (SK-MEL-28 melanoma): 574 nM and 294 nM
- GI50 (RPMI-8226 leukemia): 4.87 nM
- TGI (RPMI-8226 leukemia): 11.6 nM
- GI50 (SF-539 CNS): 5.53 nM
- GI50 (NCI-H522 lung): 6.8 nM
- TGI (NCI-H522 lung): 160 nM and 53.8 nM
- GI50 (MDA-N): 52.2 nM and 21 nM
- TGI (MDA-N): 229 nM and 272 nM and 131 nM
- TGI (MOLT-4 leukemia): 6.58 nM
- GI50 (A549 NSCLC): 12.8 nM
- TGI (A549 NSCLC): 4630 nM
- GI50 (KM12 colon): 46 nM and 17.9 nM
- TGI (KM12 colon): 2640 nM and 294 nM
- GI50 (HCT-15 colon): 118 nM and 51.7 nM
- GI50 (NCI-H226 lung): 35.7 nM and 10.2 nM
- GI50 (U251 CNS): 7.72 nM
- TGI (U251 CNS): 710 nM and 2600 nM
- GI50 (ACHN renal): 8.2 nM
- TGI (ACHN renal): 673 nM
- GI50 (COLO 205 colon): 12.7 nM
- TGI (COLO 205 colon): 473 nM and 312 nM
- GI50 (RXF 393 renal): 14.8 nM
- TGI (RXF 393 renal): 64.1 nM and 148 nM
- GI50 (SF-295 CNS): 31.2 nM
- TGI (SF-295 CNS): 3450 nM and 1350 nM
- GI50 (SNB-19 CNS): 15.2 nM
- TGI (SNB-19 CNS): 3200 nM
- GI50 (SN12C renal): 12.1 nM
- TGI (SN12C renal): 96.6 nM and 134 nM and 35.9 nM
- GI50 (HL-60(TB) leukemia): 2.67 nM
- GI50 (OVCAR-8 ovarian): 17.6 nM
- TGI (OVCAR-8 ovarian): 4220 nM and 1270 nM
- GI50 (UACC-257 melanoma): 24.4 nM
- TGI (UACC-257 melanoma): 198 nM and 381 nM and 136 nM
- GI50 (TK-10 renal): 232 nM
- GI50 (BT-549 breast): 117 nM and 26.2 nM
- TGI (BT-549 breast): 734 nM and 1320 nM and 210 nM
- GI50 (SK-OV-3 ovarian): 131 nM and 42.9 nM
- TGI (SK-OV-3 ovarian): 25000 nM and 4710 nM
